Laboratory results from publication PMC8445441, “Elucidating the mechanism by which synthetic helper peptides sensitize Pseudomonas aeruginosa to multiple antibiotics” (PLoS Pathogens, 2021).
Read-outs that look alike come from different tables or passages of the source.

Experiments:
[1] = system: clinical P. aeruginosa isolates; experiment: microbe, parasite or virus in culture; settings: Pseudomonas aeruginosa, 18 h, antibiotic alone
In short: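 Broth microdilution per CLSI in MHB, two-fold drug dilutions mixed with an equal volume of bacteria at about 1 × 10^6 CFU/mL. After 18 h at 37 °C, MIC taken as the lowest concentration with no visible growth; run in triplicate.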

[2] = system: P. aeruginosa HM-214; settings: strain HM-214; antibiotic + D-11 (MICb/MICbc 128/4)
In short: (§1)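 MICs were determined by CLSI broth microdilution in MHB, in triplicate: two-fold drug dilutions were mixed 1:1 with bacterial suspension of ~1 × 10^6 CFU/mL and incubated 18 h at 37 °C. The MIC was the lowest concentration with no visible growth.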

[3] = system: P. aeruginosa ATCC27853; experiment: microbe, parasite or virus in culture; design: MICa: MIC of the antibiotic / MICac: MIC of the antibiotic in the combination: unit not given beside the values; settings: for MIC: Pseudomonas aeruginosa, ATCC27853, 18 h, read-out: MICa: MIC of the antibiotic
In short: as §1

[4] = system: P. aeruginosa PAK; experiment: microbe, parasite or virus in culture; design: MICa: MIC of the antibiotic / MICac: MIC of the antibiotic in the combination: unit not given beside the values; settings: for MIC: Pseudomonas aeruginosa, 18 h, read-out: MICa: MIC of the antibiotic; for FICI / MICac: MIC of the antibiotic in the combination: strain PAK; for FICI: antibiotic + D-11 (MICb/MICbc 64/4); for MICac: MIC of the antibiotic in the combination: with D-11 at MICbc 4, unit not given
In short: as §1

[5] = system: P. aeruginosa NR-31040; experiment: microbe, parasite or virus in culture; design: MICa: MIC of the antibiotic / MICac: MIC of the antibiotic in the combination: unit not given beside the values; settings: for MIC: Pseudomonas aeruginosa, NR31040, 18 h, read-out: MICa: MIC of the antibiotic; for FICI / MICac: MIC of the antibiotic in the combination: strain NR-31040; for FICI: antibiotic + D-11 (MICb/MICbc 128/4); for MICac: MIC of the antibiotic in the combination: with D-11 at MICbc 4, unit not given
In short: as §1

[6] = system: P. aeruginosa PA14; experiment: microbe, parasite or virus in culture; design: MICa: MIC of the antibiotic / MICac: MIC of the antibiotic in the combination: unit not given beside the values; settings: for MIC: Pseudomonas aeruginosa, PA14, 18 h, read-out: MICa: MIC of the antibiotic; for FICI / MICac: MIC of the antibiotic in the combination: strain PA14; for FICI: antibiotic + D-11 (MICb/MICbc 128/4); for MICac: MIC of the antibiotic in the combination: with D-11 at MICbc 4, unit not given
In short: as §1

[7] = system: P. aeruginosa NR-31041; experiment: microbe, parasite or virus in culture; design: MICa: MIC of the antibiotic / MICac: MIC of the antibiotic in the combination: unit not given beside the values; settings: for MIC: Pseudomonas aeruginosa, NR31041, 18 h, read-out: MICa: MIC of the antibiotic; for FICI / MICac: MIC of the antibiotic in the combination: strain NR-31041; for FICI: antibiotic + D-11 (MICb/MICbc 64/4); for MICac: MIC of the antibiotic in the combination: with D-11 at MICbc 4, unit not given
In short: as §1

[8] = system: P. aeruginosa AUMC-Pa-3; experiment: microbe, parasite or virus in culture; settings: for MIC: Pseudomonas aeruginosa, AUMCPA3, 18 h, read-out: MICa: MIC of the antibiotic; for FICI / MICac: MIC of the antibiotic in the combination: strain AUMC-Pa-3; for FICI: antibiotic + D-11 (MICb/MICbc 128/4); for MICac: MIC of the antibiotic in the combination: with D-11 at MICbc 4, unit not given
In short: as §1

[9] = system: P. aeruginosa PAO1; experiment: microbe, parasite or virus in culture; settings: PAO1; for MIC: Pseudomonas aeruginosa, PAO1, 18 h, read-out: MICa: the MIC of antibiotics, S3 Table, antibiotic alone; for FICI / MICac: the MIC for the antibiotic in the combination: S3 Table
In short: as §1

[10] = system: P. aeruginosa AUMC-Pa-4; experiment: microbe, parasite or virus in culture; settings: for MIC: Pseudomonas aeruginosa, AUMCPA4, 18 h, read-out: MICa: MIC of the antibiotic; for FICI / MICac: MIC of the antibiotic in the combination: strain AUMC-Pa-4; for FICI: antibiotic + D-11 (MICb/MICbc 128/4); for MICac: MIC of the antibiotic in the combination: with D-11 at MICbc 4, unit not given
In short: as §1

[11] = system: P. aeruginosa AUMC-Pa-6; experiment: microbe, parasite or virus in culture; settings: strain AUMC-Pa-6; for MICa: MIC of the antibiotic: antibiotic alone; for MICa: MIC of the antibiotic / MICac: MIC of the antibiotic in the combination: unit not given; for MICac: MIC of the antibiotic in the combination: with D-11 at MICbc 4
In short: as §1

[12] = system: P. aeruginosa AUMC-Pa-5; experiment: microbe, parasite or virus in culture; settings: strain AUMC-Pa-5; for FICI: antibiotic + D-11 (MICb/MICbc 64/4); for MICa: MIC of the antibiotic: antibiotic alone; for MICa: MIC of the antibiotic / MICac: MIC of the antibiotic in the combination: unit not given; for MICac: MIC of the antibiotic in the combination: with D-11 at MICbc 4
In short: as §1

[13] = system: P. aeruginosa AUMC-Pa-2; settings: strain AUMC-Pa-2; antibiotic + D-11 (MICb/MICbc 64/4)
In short: as §1

[14] = system: P. aeruginosa AUMC-Pa-1; settings: strain AUMC-Pa-1; antibiotic + D-11 (MICb/MICbc 128/4)
In short: as §1

[15] = read-out: Antibiotic sensibility (MIC) of clinical P. aeruginosa isolate AUMC-Pa-1, strain AUMC-Pa-1
[16] = read-out: Antibiotic sensibility (MIC) of clinical P. aeruginosa isolate AUMC-Pa-2, strain AUMC-Pa-2
[17] = read-out: Antibiotic sensibility (MIC) of clinical P. aeruginosa isolate AUMC-Pa-3, strain AUMC-Pa-3
[18] = read-out: Antibiotic sensibility (MIC) of clinical P. aeruginosa isolate AUMC-Pa-4, strain AUMC-Pa-4
[19] = read-out: Antibiotic sensibility (MIC) of clinical P. aeruginosa isolate AUMC-Pa-5, strain AUMC-Pa-5
[20] = read-out: Antibiotic sensibility (MIC) of clinical P. aeruginosa isolate AUMC-Pa-6, strain AUMC-Pa-6
[21] = read-out: Antibiotic sensibility (MIC) of clinical P. aeruginosa isolate HM-214, strain HM-214
[22] = read-out: Antibiotic sensibility (MIC) of clinical P. aeruginosa isolate NR-31040, strain NR-31040
[23] = read-out: Antibiotic sensibility (MIC) of clinical P. aeruginosa isolate NR-31041, strain NR-31041

## CO[C@H]1/C=C/O[C@@]2(C)Oc3c(C)c(O)c4c(O)c(c(/C=N/N5CCN(C)CC5)c(O)c4c3C2=O)NC(=O)/C(C)=C\C=C\[C@H](C)[C@H](O)[C@@H](C)[C@@H](O)[C@@H](C)[C@H](OC(C)=O)[C@@H]1C [Rifampicin]
[1]; [15]
  MIC: 32 µM
[1]; [16]
  MIC: 16 µM
[1]; [17]
  MIC: 16 µM
[1]; [18]
  MIC: 16 µM
[1]; [19]
  MIC: 32 µM
[1]; [20]
  MIC: 32 µM
[1]; [21]
  MIC: 16 µM
[1]; [22]
  MIC: 16 µM
[1]; [23]
  MIC: 32 µM
[2]
  FICI: 0.047
[3]
  MIC: 16 µM
[4]
  MIC: 16 µM
  FICI: 0.066
  MICac: MIC of the antibiotic in the combination: 0.063
[5]
  MIC: 16 µM
  FICI: 0.063
  MICac: MIC of the antibiotic in the combination: 0.25
[6]
  MIC: > 128 µM
  FICI: 0.039
  MICac: MIC of the antibiotic in the combination: 2
[7]
  MIC: 32 µM
  FICI: 0.064
  MICac: MIC of the antibiotic in the combination: 0.063
[8]
  MIC: 16 µM
  FICI: 0.032
  MICac: MIC of the antibiotic in the combination: 0.016
[9]
  MIC: 32 µM
[9]; antibiotic + 2 μM D-11
  FICI: 0.064
[9]; with 2 μM D-11
  MICac: the MIC for the antibiotic in the combination: 0.0625 µM
[9]; with 4 μM D-11
  MICac: the MIC for the antibiotic in the combination: 0.01562 µM
[10]
  MIC: 16 µM
  FICI: 0.047
  MICac: MIC of the antibiotic in the combination: 0.25
[11]
  MICa: MIC of the antibiotic: 32
  MICac: MIC of the antibiotic in the combination: 2
[12]
  FICI: 0.563
  MICa: MIC of the antibiotic: 32
  MICac: MIC of the antibiotic in the combination: 16
[13]
  FICI: 0.064
[14]
  FICI: 0.032

## CO[C@H]1/C=C/O[C@@]2(C)Oc3c(C)c(O)c4c(O)c(c(/C=N/N5CCN(C6CCCC6)CC5)c(O)c4c3C2=O)NC(=O)/C(C)=C\C=C\[C@H](C)[C@H](O)[C@@H](C)[C@@H](O)[C@@H](C)[C@H](OC(C)=O)[C@@H]1C [Rifapentine]
[1]; [15]
  MIC: 16 µM
[1]; [16]
  MIC: 8 µM
[1]; [17]
  MIC: 8 µM
[1]; [18]
  MIC: 16 µM
[1]; [19]
  MIC: 32 µM
[1]; [20]
  MIC: 16 µM
[1]; [21]
  MIC: 8 µM
[1]; [22]
  MIC: 8 µM
[1]; [23]
  MIC: 16 µM
[2]
  FICI: 0.063
[3]
  MIC: 32 µM
[3]; strain ATCC27853, antibiotic + D-11 (MICb/MICbc 32/4)
  FICI: 0.133
[3]; strain ATCC27853, with D-11 at MICbc 4, unit not given
  MICac: MIC of the antibiotic in the combination: 0.031
[4]
  MIC: 16 µM
  FICI: 0.070
  MICac: MIC of the antibiotic in the combination: 0.125
[5]
  MIC: 8 µM
  FICI: 0.094
  MICac: MIC of the antibiotic in the combination: 0.5
[6]
  MIC: > 128 µM
  FICI: 0.063
  MICac: MIC of the antibiotic in the combination: 8
[7]
  MIC: 16 µM
  FICI: 0.066
  MICac: MIC of the antibiotic in the combination: 0.063
[8]
  MIC: 8 µM
  FICI: 0.035
  MICac: MIC of the antibiotic in the combination: 0.031
[9]
  MIC: 32 µM
[9]; antibiotic + 2 μM D-11
  FICI: 0.066
[9]; antibiotic + 4 μM D-11
  FICI: 0.126
[9]; with 2 μM D-11
  MICac: the MIC for the antibiotic in the combination: 0.125 µM
[9]; with 4 μM D-11
  MICac: the MIC for the antibiotic in the combination: 0.03125 µM
[10]
  MIC: 16 µM
  FICI: 0.063
  MICac: MIC of the antibiotic in the combination: 0.5
[11]; antibiotic + D-11 (MICb/MICbc 64/4)
  FICI: 0.188
[11]
  MICa: MIC of the antibiotic: 16
  MICac: MIC of the antibiotic in the combination: 2
[12]
  FICI: 0.563
  MICa: MIC of the antibiotic: 32
  MICac: MIC of the antibiotic in the combination: 16
[13]
  FICI: 0.066
[14]
  FICI: 0.035
